This is an account of results in patent US11180474B2 (BRISTOL-MYERS SQUIBB COMPANY, priority 2016, dated 2021).

For this experiment, the target named is T1, human TLR8 (Homo sapiens, UniProt Q9NR97).
T1 construct: host or cells: HEK-Blue cells
T1 sequence (Q9NR97 27-1041): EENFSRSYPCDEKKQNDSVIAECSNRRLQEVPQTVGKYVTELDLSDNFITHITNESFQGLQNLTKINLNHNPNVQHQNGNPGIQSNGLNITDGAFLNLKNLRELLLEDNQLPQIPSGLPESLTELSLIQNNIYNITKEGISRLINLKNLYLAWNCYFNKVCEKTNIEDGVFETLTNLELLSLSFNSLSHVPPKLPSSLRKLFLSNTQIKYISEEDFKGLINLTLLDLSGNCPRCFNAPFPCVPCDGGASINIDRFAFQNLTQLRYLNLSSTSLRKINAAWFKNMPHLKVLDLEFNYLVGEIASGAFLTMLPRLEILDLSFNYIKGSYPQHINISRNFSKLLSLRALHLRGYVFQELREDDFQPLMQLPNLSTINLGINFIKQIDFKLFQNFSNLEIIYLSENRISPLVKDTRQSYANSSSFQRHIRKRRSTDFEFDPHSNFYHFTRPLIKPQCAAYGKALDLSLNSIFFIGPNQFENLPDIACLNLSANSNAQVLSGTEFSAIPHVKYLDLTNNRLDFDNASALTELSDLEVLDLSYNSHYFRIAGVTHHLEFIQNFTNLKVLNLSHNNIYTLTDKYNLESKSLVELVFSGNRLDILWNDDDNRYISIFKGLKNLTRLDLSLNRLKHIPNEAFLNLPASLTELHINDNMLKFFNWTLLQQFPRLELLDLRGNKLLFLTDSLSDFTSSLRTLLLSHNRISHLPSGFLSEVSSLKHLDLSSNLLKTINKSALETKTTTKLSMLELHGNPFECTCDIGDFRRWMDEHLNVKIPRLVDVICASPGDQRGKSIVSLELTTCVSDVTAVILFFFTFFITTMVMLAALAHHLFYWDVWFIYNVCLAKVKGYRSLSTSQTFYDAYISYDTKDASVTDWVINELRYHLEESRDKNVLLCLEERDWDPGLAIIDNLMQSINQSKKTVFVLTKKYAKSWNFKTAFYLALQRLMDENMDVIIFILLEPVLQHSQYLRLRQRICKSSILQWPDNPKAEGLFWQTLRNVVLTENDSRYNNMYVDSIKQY
The experiment in a line: TLR8 inhibition reporter assay (HEK-Blue cells, SEAP reporter, R848 stimulation). Format: cell-based. Conditions: HEK-Blue cells overexpressing human TLR8, R848 15.9 μM. Here is the method: TLR7/8/9 Inhibition Reporter Assays
Briefly, cells are seeded into Greiner 384 well plates (15000 cells per well for TLR7, 20,000 for TLR8 and 25,000 for TLR9) and then treated with test compounds in DMSO to yield a final dose response concentration range of 0.05 nM-50 μM. […] After a 22 hour incubation at 37° C., 5% CO2, SEAP levels are determined with the addition of HEK-Blue™ Detection reagent (Invivogen), a cell culture medium that allows for detection of SEAP, according to manufacturer's specifications. The percent inhibition is determined as the % reduction in the HEK-Blue signal present in wells treated with agonist plus DMSO alone compared to wells treated with a known inhibitor.
On the technique in general: In a reporter assay the amount or activity of a reporter protein is the signal.
As a reminder, the IC50 is the concentration at which inhibition is half-maximal. Consider `CCc1c(-c2ccc(OC)c(OC)c2)[nH]c2ccc(C3CCN(C(=O)CNC4CCC(N(C)C)CC4)CC3)cc12` (centres unmarked) [Example 162, 1-(4-(2-(3,4-dimethoxyphenyl)-3-ethyl-1H-indol-5-yl)piperidin-1-yl)-2-((4-(dimethylamino)cyclohexyl)amino)ethan-1-one], for which half-maximal inhibition (IC50) was put at 23 nM. This lies in the double-digit nanomolar range.
The figure for `CCc1c(-c2ccc(OC)c(OC)c2)[nH]c2cc(OC)c(C3CCN(C4CCN(C(C)C)CC4)CC3)cc12` [Example 192, 2-(3,4-dimethoxyphenyl)-3-ethyl-5-(1′-isopropyl-[1,4′-bipiperidin]-4-yl)-6-methoxy-1H-indole] is 194 nM; for `COc1ccc(-c2[nH]c3ccc(C4CCN(C5CCN(C6CCCC6)CC5)CC4)cc3c2C(C)C)cc1OC` [Example 202, 5-(1′-cyclopentyl-[1,4′-bipiperidin]-4-yl)-2-(3,4-dimethoxyphenyl)-3-isopropyl-1H-indole] it is 13 nM.
The figure for `CCc1c(-c2ccc(OC)c(OC)c2)[nH]c2ccc(C3CCN(C4CCN(Cc5cc6ccccc6n5C)CC4)CC3)cc12` [Example 137, 2-(3,4-dimethoxyphenyl)-3-ethyl-5-(1′-((1-methyl-1H-indol-2-yl)methyl)-[1,4′-bipiperidin]-4-yl)-1H-indole] is 1290 nM; for `CCc1c(-c2ccc(OC)c(OC)c2)[nH]c2c(F)cc(C3CCN(C4CCN(CC(C)C)CC4)CC3)cc12` [Example 190, 2-(3,4-dimethoxyphenyl)-3-ethyl-7-fluoro-5-(1′-isobutyl-[1,4′-bipiperidin]-4-yl)-1H-indole] it is 1760 nM; for `CCc1c(-c2ccc(OC)c(OC)c2)[nH]c2ccc(C3CCN(C4CCN(Cc5cc(C)n[nH]5)CC4)CC3)cc12` [Example 131, 2-(3,4-dimethoxyphenyl)-3-ethyl-5-(1′-((3-methyl-1H-pyrazol-5-yl)methyl)-[1,4′-bipiperidin]-4-yl)-1H-indole] it is 56 nM.
Molecule `CCc1c(-c2ccc(OC)c(OC)c2)[nH]c2ccc(C3CCN(C4CCN(Cc5cc(C)nn5C)CC4)CC3)cc12` [Example 132, 2-(3,4-dimethoxyphenyl)-5-(1′-((1,3-dimethyl-1H-pyrazol-5-yl)methyl)-[1,4′-bipiperidin]-4-yl)-3-ethyl-1H-indole] came in with an IC50 of no less than 50000 nM.
As to `COc1ccc(-c2[nH]c3ccc(C4CCN(C(=O)CNC56CC7CC(CC(C7)C5)C6)CC4)cc3c2C(C)C)cc1OC` [Example 217, 2-(((3s,5s,7s)-adamantan-1-yl)amino)-1-(4-(2-(3,4-dimethoxyphenyl)-3-isopropyl-1H-indol-5-yl)piperidin-1-yl)ethan-1-one], the 50% inhibitory concentration (IC50) is 379 nM.
In turn, `CCc1c(-c2ccc(OC)c(OC)c2)[nH]c2ccc(C3CCN(C4CCN(CC)CC4)CC3)cc12` [Example 149, 2-(3,4-dimethoxyphenyl)-3-ethyl-5-(1′-ethyl-[1,4′-bipiperidin]-4-yl)-1H-indole] returned a half-maximal inhibitory concentration (IC50) of 31 nM.
Molecule `COc1ccc(-c2[nH]c3ccc(C4CCN(C5CCN(Cc6ccccc6)CC5)CC4)cc3c2C)cc1OC` [Example 9, 5-(1′-benzyl-[1,4′-bipiperidin]-4-yl)-2-(3,4-dimethoxyphenyl)-3-methyl-1H-indole] yielded an IC50 of 457 nM.
Next, `CCc1c(-c2ccc(OC)c(OC)c2)[nH]c2ccc(C3CCN(CC(C)C(F)(F)F)CC3)cc12` (centres unmarked) [Example 180, 2-(3,4-dimethoxyphenyl)-3-ethyl-5-(1-(3,3,3-trifluoro-2-methylpropyl)piperidin-4-yl)-1H-indole]: 776 nM; `CCCc1c(-c2ccc(OC)c(OC)c2)[nH]c2ccc(C3CCN(C4CCN(CC(C)C)CC4)CC3)cc12` [Example 121, 2-(3,4-dimethoxyphenyl)-5-(1′-isobutyl-[1,4′-bipiperidin]-4-yl)-3-propyl-1H-indole-di-trifluoroacetic acid]: 65 nM.
As to `CCc1c(-c2ccc(OC)c(OC)c2)[nH]c2ccc(C3CCN(C(=O)C(C)(C)OC(C)=O)CC3)cc12` [Example 175, 1-(4-(2-(3,4-dimethoxyphenyl)-3-ethyl-1H-indol-5-yl)piperidin-1-yl)-2-methyl-1-oxopropan-2-yl acetate], the half-maximal inhibitory concentration (IC50) turned out to be 2060 nM.
In turn, `COc1ccc(-c2[nH]c3ccc(C4CCN(C5CCN(CC6CC6)CC5)CC4)cc3c2C(C)C)cc1OC` [Example 198, 5-(1′-(cyclopropylmethyl)-[1,4′-bipiperidin]-4-yl)-2-(3,4-dimethoxyphenyl)-3-isopropyl-1H-indole di trifluoroacetic acid] came in with an IC50 of 22 nM.
The molecule `COc1ccc(-c2[nH]c3cc(C)c(C4CCN(C5CCN(C(C)C)CC5)CC4)cc3c2C)cc1OC` [Example 115, 2-(3,4-dimethoxyphenyl)-5-(1′-isopropyl-[1,4′-bipiperidin]-4-yl)-3,6-dimethyl-1H-indole-di-trifluoroacetic acid] displayed a half-maximal inhibitory concentration (IC50) of 2230 nM.
For `CCc1c(-c2ccc(OC)c(OC)c2)[nH]c2ccc(C3CCN(C4CCN(Cc5ccn(C)n5)CC4)CC3)cc12` [Example 133, 2-(3,4-dimethoxyphenyl)-3-ethyl-5-(1′-((1-methyl-1H-pyrazol-3-yl)methyl)-[1,4′-bipiperidin]-4-yl)-1H-indole], the 50% inhibitory concentration (IC50) amounted to 160 nM. This IC50 lies about 14-fold lower than the previous one.
In turn, `CCc1c(-c2ccc(OC)c(OC)c2)[nH]c2ccc(C3CCN(C4CCN(Cc5cnc(C)o5)CC4)CC3)cc12` [Example 124, 5-((4-(2-(3,4-dimethoxyphenyl)-3-ethyl-1H-indol-5-yl)-[1,4′-bipiperidin]-1′-yl)methyl)-2-methyloxazole] returned a half-maximal inhibitory concentration (IC50) of 248 nM.
The figure for `CCc1c(-c2ccc(OC)c(OC)c2)[nH]c2ccc(C3CCN(C4CCN(C)CC4)CC3)cc12` [Example 150, 2-(3,4-dimethoxyphenyl)-3-ethyl-5-(1′-methyl-[1,4′-bipiperidin]-4-yl)-1H-indole] is 1360 nM; for `CCc1c(-c2ccc(OC)c(OC)c2)[nH]c2ccc(C3CCN(C(=O)CNCCO)CC3)cc12` [Example 159, 1-(4-(2-(3,4-dimethoxyphenyl)-3-ethyl-1H-indol-5-yl)piperidin-1-yl)-2-((2-hydroxyethyl)amino) ethan-1-one] it is 26 nM; for `CCc1c(-c2ccc(OC)c(OC)c2)[nH]c2ccc(C3CCN(C4CCN(Cc5cnc(C)[nH]5)CC4)CC3)cc12` [Example 153, 2-(3,4-dimethoxyphenyl)-3-ethyl-5-(1′-((2-methyl-1H-imidazol-5-yl)methyl)-[1,4′-bipiperidin]-4-yl)-1H-indole] it is 364 nM.
Next, `COc1ccc(-c2[nH]c3ccc(C4CCN(C(=O)CNC(CO)CO)CC4)cc3c2C(C)C)cc1OC` [Example 220, 2-((1,3-dihydroxypropan-2-yl)amino)-1-(4-(2-(3,4-dimethoxyphenyl)-3-isopropyl-1H-indol-5-yl)piperidin-1-yl)ethan-1-one]: 21 nM; `CCc1c(-c2ccc(OC)c(OC)c2)[nH]c2ccc(C3CCN(C(=O)c4ccncc4)CC3)cc12` [Example 183, (4-(2-(3,4-dimethoxyphenyl)-3-ethyl-1H-indol-5-yl)piperidin-1-yl)(pyridin-4-yl) methanone]: 838 nM; `CCc1c(-c2ccc(OC)c(OC)c2)[nH]c2ccc(C3CCN(C(=O)CN4CCCC(C(=O)O)C4)CC3)cc12` (racemic) [Example 176, 1-(2-(4-(2-(3,4-dimethoxyphenyl)-3-ethyl-1H-indol-5-yl)piperidin-1-yl)-2-oxoethyl)piperidine-3-carboxylic acid]: 6550 nM.
